Experimental data taken from patent US8338599B2, “Compounds having a potentiating effect on the activity of ethionamide and uses thereof” (priority 2006, dated 2012).
“And” between values parts separate entries of the source, which are not always exact repeats. Equal entries are not always repeated.

Assays:
M. tuberculosis H37Rv = assay: Ethionamide-potentiating effect, RIA detection method on Bactec 460 in 12B medium; assay type: cell-based; details: with 25 μM of compound
EthR protein [1] = biological target: T1, EthR protein (Mycobacterium tuberculosis, UniProt P9WMC1); assay: In vitro measurement of the IC50 (EthR/DNA binding, BIAcore); design: species or system M. tuberculosis H37Rv
Method: b) In Vitro Measurement of the IC50 of the Compounds of the Invention.
The in vitro measurement of this datum was performed according to the same principle as for the measurement of inhibition of the EthR/DNA binding using the BIAcore technique.
The specific interaction between EthR and the specific 106-bp DNA fragment was measured on a range of six concentrations of the compounds of the invention, this range extending from 0.11 μM to 27 μM. The IC50 values are then extrapolated from the sigmoid curves obtained.

M. bovis BCG = assay type: cell-based, M. bovis BCG 1173P2; details: from MIC of ETH alone (6 μM) and MIC of ETH with 25 μM compound
EthR protein [2] = biological target: T1, EthR protein; assay: Inhibition of interaction of EthR with its target DNA sequence (BIAcore); assay type: binding, M. tuberculosis H37Rv
Method: a) Measurement of the Activity of the Compounds on the Inhibition of Interaction of EthR with its Target DNA Sequence
The in vitro measurements of inhibition of binding of the EthR protein to its target DNA sequence were performed on a machine of BIAcore®2000 type (AB, Uppsala, Sweden).
The chips used are CM5 chips sold by the company GE Healthcare. Both the channels of a chip were activated with a solution containing 200 mM of EDC(N-ethyl-N′-(3-[…])carbodiimide) and 50 mM of NHS (N-hydroxysuccinimide). Next, streptavidin (500 ng/μl in a solution containing 10 mM of sodium acetate (pH 3.5) was injected over 12 minutes at a flow rate of 10 μl/minute. The 106-base-pair biotinylated DNA fragment corresponding to the ethA-R intergene region was deposited on one of the two channels of the chip at a rate of 200 ng/ml in order to obtain stable binding of streptavidin corresponding to 50 RU (resonance units). This DNA fragment was obtained by PCR using the chromosomal DNA of M. tuberculosis H37Rv as matrix and O-270: 5′-[…]-3′ (SEQ ID: No. 1) and O-271: 5′-biotin-[…]-3′ (SEQ ID: No. 2). The second channel was functionalized with a 113-base-pair biotinylated DNA fragment (fragment +14 to +127 of the bla gene of E. coli PCR-amplified using the following oligonucleotides: O-343: 5′-[…]-3′ (SEQ ID: No. 3) and O-344: 5′-biotin-[…]-3′ (SEQ ID: No. 4).
Measurement of the binding of the EthR protein to the immobilized DNA was performed at 37° C. in a reference buffer containing 10 mM of Tris-HCl (pH=7.5), 200 mM of NaCl, 0.1 mM of EDTA, 1 mM of DTT and 1% of DMSO at a flow rate of 20 μl/minute. The specific interaction (SI) of EthR with the 106-base-pair double-stranded DNA sequence, expressed in resonance units, corresponds to the difference in signal observed between the two channels.
For each inhibition measurement, the compounds of the invention are dissolved in the reference buffer at a concentration of 3 μM. The compounds of the invention are then incubated in the presence of the protein (540 nM) at 37° C. for 5 minutes, and each solution is then injected onto the two channels of the chip for 3 minutes at a flow rate of 20 μl/minute. The inhibition values are calculated at the end of the injection according to the following equation: […]
in which SIEthR corresponds to the value measured without ligand and SIEthR+ligand corresponds to the value measured in the presence of to ligand.

[3] = test system: Mycobacterium tuberculosis bacilli (strain H37RV); assay: Agar gel well test of ETH potentiation in Petri dishes; assay type: cell-based

T1 sequence (P9WMC1 whole entry, looked up): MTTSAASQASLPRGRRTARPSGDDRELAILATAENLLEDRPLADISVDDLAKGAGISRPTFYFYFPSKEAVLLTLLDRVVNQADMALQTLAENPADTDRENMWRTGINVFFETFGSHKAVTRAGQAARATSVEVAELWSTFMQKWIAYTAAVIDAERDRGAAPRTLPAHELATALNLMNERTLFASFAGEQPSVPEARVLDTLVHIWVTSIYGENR

Row | Compound | ETH concentration giving the same growth-inhibiting effect (M. tuberculosis H37Rv) | IC50 (EthR protein [1]) [µM] | Potentiation % (M. bovis BCG) [%] | inhibition at 3 µM (EthR protein [2]; compound 3 μM, EthR 540 nM, 37° C.) [%] | inhibition at 1 µM (EthR protein [2]; footnote c: DNA 20 RU, EthR 200 nM, compound 1 μM) [%] | inhibition of mycobacterial growth around the well ([3]; 20 nmol of compound alone (hole A2), three weeks 37° C.) | inhibition of mycobacterial growth around the well ([3]; 2 μg or 4 μg of ETH + 20 nmol of compound (holes C1 and C2)) | factor of reduction of the effective dose of ETH ([3]; combination with ETH, test behind the figure not stated)
1 | [N-]=[N+]=NCC(=O)N1CCC(c2nc(-c3cccs3)no2)CC1 [Compound I-1, 2-azido-1-[4-(3-thiophen-2-yl[1,2,4]oxadiazol-5-yl)piperid-1-yl]ethanone] | 0.1 μg/ml and 0.6 μM | 1.54 | 2500 | 33 | 45 | – | – | –
2 | CC(C)(C)OC(=O)N1CCC(c2nc(-c3cccs3)no2)CC1 [Compound I-3, t-butyl ester of 4-(3-thiophen-2-yl-1,2,4-oxadiazol-5-yl)piperidine-1-carboxylic acid] | – | – | – | – | – | does not show any bacterial toxicity | strongly inhibit the mycobacterial growth | about 10 fold
